Where no end group is shown, it is not given here.
Tested on: Mfn2
Assay: Binding of recombinant Mfn2 to surface-conjugated P259 (AGILE-R100 graphene sensor)
Design: species or system human
Details: P259 surface-conjugated (50 nM), 100 nM protein, RIPA buffer pH 8.0; n = 3, with 3 replicates
Text: Figure 1 Rational peptide design identifies a novel inhibitor of the Mff-Drp1 protein-protein interaction. (a) A scheme of the rationale behind the inhibitor design. […] Surface and ribbon diagrams of Drp1 structure (PDB, 4BEJ) with the GTPase, bundle signaling element (BSE), and stalk domains highlighted. (d) A heatmap representing sequence conservation of human proteins that contain a region similar to P259. Sequence conservation corresponds to the number of residues similar/identical to P259 from each sequence. […] The obtained graph is of the mean standardized response and ± s.e. as a function of time for n = 3 individual experiments, with 3 technical replicates each. […] Represented Western blot is cropped from a full blot shown in the Expanded Western Blots section of the Supplementary Information. (h) Relative GTPase activity of recombinant Drp1 in the presence of 1 µM of peptide (n = 3–5). Data are mean ± s.e. from 3–5 independent experiments per condition.
Drp1 and Mff. Utilizing BioPython, a pairwise alignment was performed between each ortholog […]
brief, an automated microwave peptide synthesizer (Liberty, CEM Corporation) was used to perform solid phase peptide synthesis by a series of coupling of fluorenylmethoxycarbonyl (Fmoc)-protected amino acids and hydroxybenz otriazol (HOBt) […] reaction steps. […]

YGRKKRRQRRRGSGIIQLPEIVVV-NH2 (C-terminus assumed) [P259]
binding to Mfn2: only negligible binding
